Here are results for six compounds from US9062124B2, “GIP-based mixed agonists for treatment of metabolic disorders and obesity” (priority 2008, dated 2015).

Structures are written as SMILES. Where a SMILES comes first, the peptide text is derived from it. Bridges are numbered along the chain shown (N, C = ends). [ ]: non-standard residue; d: D form. Aib = CC(C)(N)C(=O)O

Common to all, as to assay type: cell-based
One experiment addresses T1, GIP receptor (Homo sapiens, UniProt P48546).
T1 construct: expressed in transfected cells; host or cells: HEK293
T1 sequence (P48546 22-466): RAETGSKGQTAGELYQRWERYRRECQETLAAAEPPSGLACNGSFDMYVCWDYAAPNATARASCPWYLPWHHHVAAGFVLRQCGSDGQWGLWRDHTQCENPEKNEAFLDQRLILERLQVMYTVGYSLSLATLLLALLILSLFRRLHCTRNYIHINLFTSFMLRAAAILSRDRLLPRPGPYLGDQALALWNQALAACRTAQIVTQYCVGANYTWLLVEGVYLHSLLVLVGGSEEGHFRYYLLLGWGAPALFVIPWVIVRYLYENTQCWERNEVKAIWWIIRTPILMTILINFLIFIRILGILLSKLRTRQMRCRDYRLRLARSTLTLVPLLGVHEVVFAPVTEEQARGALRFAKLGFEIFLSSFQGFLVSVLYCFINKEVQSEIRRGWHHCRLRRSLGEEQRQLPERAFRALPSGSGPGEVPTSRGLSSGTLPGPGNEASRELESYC
The experiment in a line: cAMP synthesis functional assay (firefly luciferase reporter in HEK293 cells), GIP receptor. To be noted: Table 1; for GIP Receptor relative activity: relative to the native hormone of the indicated receptor.

Another experiment addresses T2, glucagon receptor (Homo sapiens, UniProt P47871).
T2 construct: expressed in transfected cells; host or cells: HEK293
The experiment in a line: cAMP synthesis functional assay (firefly luciferase reporter in HEK293 cells), glucagon receptor. To be noted: Table 1; relative to the native hormone of the indicated receptor. In general terms: In a reporter assay the amount or activity of a reporter protein is the signal.

For experiment [1], the system named is glucagon receptor, GLP-1 receptor or GIP receptor. The experiment in a line: Agonist profile across receptors assigned from the cAMP reporter assay data. The following applies: assigned from the in vitro EC50 data of Tables 1-4.
The next experiment has as its target T3, GLP-1 receptor (Homo sapiens, UniProt P43220).
T3 construct: expressed in transfected cells; host or cells: HEK293
The experiment in a line: cAMP synthesis functional assay (firefly luciferase reporter in HEK293 cells), GLP-1 receptor. The following applies: Table 1; for GLP-1 Receptor relative activity: relative to the native hormone of the indicated receptor; for EC50: GLP-1 Receptor EC50, nM.

T3 sequence (P43220 24-463, species assumed): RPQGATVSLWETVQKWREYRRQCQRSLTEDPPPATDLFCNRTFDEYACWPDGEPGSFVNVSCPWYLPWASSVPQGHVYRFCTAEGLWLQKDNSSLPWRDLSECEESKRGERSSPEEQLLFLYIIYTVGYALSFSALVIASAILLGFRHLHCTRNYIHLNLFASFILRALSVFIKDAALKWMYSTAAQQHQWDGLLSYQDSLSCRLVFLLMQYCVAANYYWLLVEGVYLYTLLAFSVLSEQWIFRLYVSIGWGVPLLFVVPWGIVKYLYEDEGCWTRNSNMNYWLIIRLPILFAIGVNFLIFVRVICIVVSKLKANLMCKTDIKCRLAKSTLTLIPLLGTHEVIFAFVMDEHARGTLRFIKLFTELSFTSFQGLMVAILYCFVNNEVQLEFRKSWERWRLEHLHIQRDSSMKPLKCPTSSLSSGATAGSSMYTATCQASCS
T2 sequence (P47871 26-477): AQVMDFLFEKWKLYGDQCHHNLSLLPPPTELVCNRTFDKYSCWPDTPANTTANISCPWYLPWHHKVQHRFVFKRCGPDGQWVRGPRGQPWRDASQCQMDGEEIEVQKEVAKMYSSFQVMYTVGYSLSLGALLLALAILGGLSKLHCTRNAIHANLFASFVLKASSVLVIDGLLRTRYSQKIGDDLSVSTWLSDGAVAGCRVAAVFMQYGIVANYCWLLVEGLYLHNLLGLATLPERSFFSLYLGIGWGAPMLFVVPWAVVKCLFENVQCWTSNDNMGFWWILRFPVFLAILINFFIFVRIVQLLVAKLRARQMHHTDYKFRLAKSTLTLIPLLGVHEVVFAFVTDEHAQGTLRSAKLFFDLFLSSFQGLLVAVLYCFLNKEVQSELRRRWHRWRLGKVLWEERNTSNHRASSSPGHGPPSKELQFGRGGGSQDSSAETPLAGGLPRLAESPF

With `CC[C@H](C)[C@H](NC(=O)[C@H](CO)NC(=O)[C@H](Cc1ccc(O)cc1)NC(=O)[C@H](CC(=O)O)NC(=O)[C@H](CO)NC(=O)[C@@H](NC(=O)[C@H](Cc1ccccc1)NC(=O)[C@@H](NC(=O)CNC(=O)[C@H](CCC(N)=O)NC(=O)C(C)(C)NC(=O)[C@@H](N)Cc1ccc(O)cc1)[C@@H](C)O)[C@@H](C)O)C(=O)N[C@@H](Cc1ccc(O)cc1)C(=O)N[C@@H](CC(C)C)C(=O)N[C@@H](CC(=O)O)C(=O)N[C@H]1CCC(=O)NCCCC[C@@H](C(=O)N[C@@H](CCC(=O)O)C(=O)N[C@@H](Cc2ccccc2)C(=O)N[C@H](C(=O)N[C@@H](CC(N)=O)C(=O)N[C@@H](Cc2c[nH]c3ccccc23)C(=O)N[C@@H](CC(C)C)C(=O)N[C@@H](CC(C)C)C(=O)N[C@@H](C)C(=O)NCC(=O)NCC(=O)N2CCC[C@H]2C(=O)N[C@@H](CO)C(=O)N[C@@H](CO)C(=O)NCC(=O)N[C@@H](C)C(=O)N2CCC[C@H]2C(=O)N2CCC[C@H]2C(=O)N2CCC[C@H]2C(=O)N[C@@H](CO)C(N)=O)C(C)C)NC(=O)[C@H](C)NC(=O)[C@H](C)NC(=O)[C@H](CCC(N)=O)NC1=O` [mt-152] (H-Y[Aib]QGTFTSDYSIYLDEQAAKEFVNWLLAGGPSSGAPPPS-NH2; lactam 16-20; N-terminus assumed), the “GIP Receptor relative activity” value at GIP receptor is 41.19%. Besides, the “Glucagon Receptor relative activity” value at glucagon receptor was 36.52%. For the same compound, the “receptor activity profile (glucagon / GLP-1 / GIP agonism)” value in experiment [1] is given as “exemplary GLP-1/GIP/glucagon triagonist peptides”. Besides, on GLP-1 receptor, the “GLP-1 Receptor relative activity” value was determined as 168.75%.
For `CC[C@H](C)[C@H](NC(=O)[C@H](CO)NC(=O)[C@H](Cc1ccc(O)cc1)NC(=O)[C@H](CC(=O)O)NC(=O)[C@H](CO)NC(=O)[C@@H](NC(=O)[C@H](Cc1ccccc1)NC(=O)[C@@H](NC(=O)CNC(=O)[C@H](CCC(N)=O)NC(=O)C(C)(C)NC(=O)[C@@H](N)Cc1ccc(O)cc1)[C@@H](C)O)[C@@H](C)O)C(=O)N[C@@H](Cc1ccc(O)cc1)C(=O)N[C@@H](CC(C)C)C(=O)N[C@@H](CC(=O)O)C(=O)N[C@H]1CCC(=O)NCCCC[C@@H](C(=O)N[C@@H](CCC(=O)O)C(=O)N[C@@H](Cc2ccccc2)C(=O)N[C@H](C(=O)N[C@@H](CS)C(=O)N[C@@H](Cc2c[nH]c3ccccc23)C(=O)N[C@@H](CC(C)C)C(=O)N[C@@H](CC(C)C)C(=O)N[C@@H](C)C(=O)NCC(=O)NCC(=O)N2CCC[C@H]2C(=O)N[C@@H](CO)C(=O)N[C@@H](CO)C(=O)NCC(=O)N[C@@H](C)C(=O)N2CCC[C@H]2C(=O)N2CCC[C@H]2C(=O)N2CCC[C@H]2C(=O)N[C@@H](CO)C(N)=O)C(C)C)NC(=O)[C@H](C)NC(=O)[C@H](C)NC(=O)[C@H](CCC(N)=O)NC1=O` [mt-158] (H-Y[Aib]QGTFTSDYSIYLDEQAAKEFVCWLLAGGPSSGAPPPS-NH2; lactam 16-20; N-terminus assumed) the same measures were 17.82%, 14.90%, “exemplary GLP-1/GIP/glucagon triagonist peptides” and 102.94%.
As a reminder, the EC50 is the concentration giving half of the maximal effect. Consider `CC[C@H](C)[C@H](NC(=O)[C@H](CC(C)C)NC(=O)[C@H](Cc1c[nH]c2ccccc12)NC(=O)[C@H](CC(N)=O)NC(=O)[C@@H](NC(=O)[C@H](Cc1ccccc1)NC(=O)[C@H](CCC(=O)O)NC(=O)[C@@H]1CCCCNC(=O)CC[C@H](NC(=O)[C@H](CC(=O)O)NC(=O)[C@H](CC(C)C)NC(=O)[C@H](Cc2ccc(O)cc2)NC(=O)[C@H](Cc2ccc(O)cc2)NC(=O)[C@H](CO)NC(=O)[C@H](Cc2ccc(O)cc2)NC(=O)[C@H](CC(=O)O)NC(=O)[C@H](CO)NC(=O)[C@@H](NC(=O)[C@H](Cc2ccccc2)NC(=O)[C@@H](NC(=O)CNC(=O)[C@H](CCC(N)=O)NC(=O)C(C)(C)NC(=O)[C@@H](N)Cc2ccc(O)cc2)[C@@H](C)O)[C@@H](C)O)C(=O)N[C@@H](CCC(N)=O)C(=O)N[C@@H](C)C(=O)N[C@@H](C(C)C)C(=O)N1)C(C)C)C(=O)N[C@@H](C)C(=O)NCC(=O)NCC(=O)N1CCC[C@H]1C(=O)N[C@@H](CO)C(=O)N[C@@H](CO)C(=O)NCC(=O)N[C@@H](C)C(=O)N1CCC[C@H]1C(=O)N1CCC[C@H]1C(=O)N1CCC[C@H]1C(=O)N[C@@H](CO)C(N)=O` [mt-162] (H-Y[Aib]QGTFTSDYSYYLDEQAVKEFVNWLIAGGPSSGAPPPS-NH2; lactam 16-20; N-terminus assumed), for which, at GIP receptor, the “GIP Receptor relative activity” value is on record as 25.74%. The “Glucagon Receptor relative activity” value on glucagon receptor came out at 0.97%. Moreover, in experiment [1], the “receptor activity profile (glucagon / GLP-1 / GIP agonism)” value is “exemplary GLP-1/GIP co-agonist peptides”. Also, at GLP-1 receptor, the EC50 turned out to be 0.011 nM and the “GLP-1 Receptor relative activity” value stood at 109.09%.
Compound `CC[C@H](C)[C@H](NC(=O)[C@H](CO)NC(=O)[C@H](Cc1ccc(O)cc1)NC(=O)[C@H](CC(=O)O)NC(=O)[C@H](CO)NC(=O)[C@@H](NC(=O)[C@H](Cc1ccccc1)NC(=O)[C@@H](NC(=O)CNC(=O)[C@H](CCC(N)=O)NC(=O)C(C)(C)NC(=O)[C@@H](N)Cc1ccc(O)cc1)[C@@H](C)O)[C@@H](C)O)C(=O)N[C@@H](Cc1ccc(O)cc1)C(=O)N[C@@H](CC(C)C)C(=O)N[C@@H](CC(=O)O)C(=O)N[C@H]1CCC(=O)NCCCC[C@@H](C(=O)N[C@@H](CCC(=O)O)C(=O)N[C@@H](Cc2ccccc2)C(=O)N[C@H](C(=O)N[C@@H](CC(N)=O)C(=O)N[C@@H](Cc2c[nH]c3ccccc23)C(=O)N[C@@H](CC(C)C)C(=O)N[C@@H](CC(C)C)C(=O)N[C@@H](C)C(=O)NCC(N)=O)C(C)C)NC(=O)[C@H](C)NC(=O)[C@H](C)NC(=O)[C@H](CCC(N)=O)NC1=O` [mt-164] (H-Y[Aib]QGTFTSDYSIYLDEQAAKEFVNWLLAG-NH2; lactam 16-20; N-terminus assumed) returned an EC50 at GIP receptor (GIP Receptor EC50, nM) of 0.164 nM. Moreover, the “GIP Receptor relative activity” value on GIP receptor is on record as 16.46%. Moreover, the “Glucagon Receptor relative activity” value on glucagon receptor was determined as 109.93%. Besides, the “receptor activity profile (glucagon / GLP-1 / GIP agonism)” value in experiment [1] was “exemplary GLP-1/GIP/glucagon triagonist peptides”. Moreover, the “GLP-1 Receptor relative activity” value on GLP-1 receptor is 56.52%.
Turning to `CC[C@H](C)[C@H](NC(=O)[C@H](CO)NC(=O)[C@H](Cc1ccc(O)cc1)NC(=O)[C@H](CC(=O)O)NC(=O)[C@H](CO)NC(=O)[C@@H](NC(=O)[C@H](Cc1ccccc1)NC(=O)[C@@H](NC(=O)CNC(=O)[C@H](CCC(N)=O)NC(=O)C(C)(C)NC(=O)[C@@H](N)Cc1ccc(O)cc1)[C@@H](C)O)[C@@H](C)O)C(=O)N[C@@H](Cc1ccc(O)cc1)C(=O)N[C@@H](CC(C)C)C(=O)N[C@@H](CC(=O)O)C(=O)N[C@H]1CCC(=O)NCCCC[C@@H](C(=O)N[C@@H](CCC(=O)O)C(=O)N[C@@H](Cc2ccccc2)C(=O)N[C@H](C(=O)N[C@@H](CC(N)=O)C(=O)N[C@@H](Cc2c[nH]c3ccccc23)C(=O)N[C@@H](CC(C)C)C(=O)N[C@@H](CC(C)C)C(=O)N[C@@H](C)C(=O)NCC(=O)NCC(=O)N2CCC[C@H]2C(=O)N[C@@H](CO)C(=O)N[C@@H](CO)C(=O)NCC(=O)N[C@@H](C)C(=O)N2CCC[C@H]2C(=O)N2CCC[C@H]2C(=O)N2CCC[C@H]2C(=O)N[C@@H](CO)C(=O)N[C@@H](CS)C(N)=O)C(C)C)NC(=O)[C@H](C)NC(=O)[C@H](C)NC(=O)[C@H](CCC(N)=O)NC1=O` [mt-165] (H-Y[Aib]QGTFTSDYSIYLDEQAAKEFVNWLLAGGPSSGAPPPSC-NH2; lactam 16-20; N-terminus assumed), on GIP receptor, the “GIP Receptor relative activity” value was found to be 27.03%. Moreover, at glucagon receptor, the “Glucagon Receptor relative activity” value amounted to 18.81%. Further, the “receptor activity profile (glucagon / GLP-1 / GIP agonism)” value in experiment [1] is “exemplary GLP-1/GIP/glucagon triagonist peptides”. At GLP-1 receptor, the response was half-maximal at 0.023 nM (EC50) and the “GLP-1 Receptor relative activity” value was 147.83%.
Take `CC[C@H](C)[C@H](NC(=O)[C@H](CO)NC(=O)[C@H](Cc1ccc(O)cc1)NC(=O)[C@H](CC(=O)O)NC(=O)[C@H](CO)NC(=O)[C@@H](NC(=O)[C@H](Cc1ccccc1)NC(=O)[C@@H](NC(=O)CNC(=O)[C@H](CCC(N)=O)NC(=O)[C@@H](C)NC(=O)[C@@H](N)Cc1ccc(O)cc1)[C@@H](C)O)[C@@H](C)O)C(=O)N[C@@H](Cc1ccc(O)cc1)C(=O)N[C@@H](CC(C)C)C(=O)N[C@@H](CC(=O)O)C(=O)N[C@H]1CCC(=O)NCCCC[C@@H](C(=O)N[C@@H](CCC(=O)O)C(=O)N[C@@H](Cc2ccccc2)C(=O)N[C@H](C(=O)N[C@@H](CC(N)=O)C(=O)N[C@@H](Cc2c[nH]c3ccccc23)C(=O)N[C@@H](CC(C)C)C(=O)N[C@@H](CC(C)C)C(=O)N[C@@H](C)C(=O)NCC(=O)NCC(=O)N2CCC[C@H]2C(=O)N[C@@H](CO)C(=O)N[C@@H](CO)C(=O)NCC(=O)N[C@@H](C)C(=O)N2CCC[C@H]2C(=O)N2CCC[C@H]2C(=O)N2CCC[C@H]2C(=O)N[C@@H](CO)C(=O)N[C@@H](CS)C(N)=O)C(C)C)NC(=O)[C@H](C)NC(=O)[C@H](C)NC(=O)[C@H](CCC(N)=O)NC1=O` [mt-166] (H-Y[dA]QGTFTSDYSIYLDEQAAKEFVNWLLAGGPSSGAPPPSC-NH2; lactam 16-20; N-terminus assumed): the “GIP Receptor relative activity” value at GIP receptor worked out at 5.94%. In addition, on glucagon receptor, the “Glucagon Receptor relative activity” value was 9.83%. In experiment [1], the “receptor activity profile (glucagon / GLP-1 / GIP agonism)” value was “exemplary GLP-1/GIP/glucagon triagonist peptides”. Moreover, at GLP-1 receptor, the “GLP-1 Receptor relative activity” value is 26.87%.
